Experimental data taken from patent US20250325526A1, “USE OF TETRAHYDRONAPHTHYRIDINE DERIVATIVE FOR PREPARING PRODUCT FOR IMPROVING HYPERPIGMENTATION” (SCINNOHUB PHARMACEUTICAL CO., LTD, priority 2022, published 2025).

Key:
Type in all cases: in vivo, SD rats
melanin granules = test: Rat melasma model: Fontana-Masson staining of melanin granules; conditions: for distribution of melanin granules: skin collected Day 58, tranexamic acid 5 mg/mL; for melanin granules in the skin tissue: skin collected Day 58, vs model group, tranexamic acid 5 mg/mL
Description: 3.3 Detection of indicators: The first day of modeling was denoted as Day 1, and the experimental period lasted for 58 days. […] Then the rats in each group were euthanized, their backs were depilated, and 0.5 g of full-thickness skin tissue from the depilated back was taken and placed into an ice bath, and normal saline was added to make a 10% tissue homogenate. The homogenate was centrifuged at 3000 r/min at room temperature for 10 min to obtain a supernatant of skin tissue homogenate. ELISA was carried out to detect the expression of endothelin-1 in the supernatant of skin tissue homogenate. The skin of the modeling area on the back of rats was taken and immersed in 10% neutral formaldehyde for fixation at room temperature for 4 days. Four days later (Day 62), paraffin embedding and sectioning were performed to obtain paraffin sections of skin. The HE staining was performed to observe the pathological changes of the skin tissues of rats in each group. Staining method: The dried paraffin sections were conventionally dewaxed with xylene, hydrated with descending gradient ethanol, and washed with distilled water; the nuclei were stained with hematoxylin for 2 minutes, differentiated with hydrochloric acid and alcohol for a few seconds, and washed with water to return to blue; the sections were stained with eosin stain for 1 minute, and the residual stain was washed with water; the sections were dehydrated and dried with gradient alcohol, transparentized with xylene, and blocked with neutral gum, then observed under microscope. The epidermal hyperplasia of the skin tissue sample sections, arrangement of basal cells, presence or absence of inflammatory cell infiltration in the dermis, and changes in the number of capillaries in all groups were observed according to the evaluation indexes. Fontana-Masson staining was performed to observe the skin pigmentation of the rats. […] An immunohistochemistrical assay was performed to detect the expression of tyrosinase in the skin in each group.

tyrosinase = test: Rat melasma model: immunohistochemical staining of tyrosinase in skin; conditions: for tyrosinase positive rate in the skin tissues: immunohistochemistry, skin collected Day 58, vs model group, P<0.001; for tyrosinase expression in the skin tissues: vs model group, P<0.01
Text: (§1) 3.1 Modeling: Before the experiment, on Day 0, SD rats (purchased from Beijing Vital River Experimental Animal Technology Co., Ltd., SPF grade, female, 7-8 weeks old, weighing 200±20 g) were randomly grouped and numbered. The hairs on the backs of animals in each group were shaved using an electric shaver, and the short hairs on the skin were removed with a depilatory cream to fully expose the back skin. The hair removal area was slightly larger than the actual modeling area (5 cm×5 cm). Each rat was depilated once every 2-3 days to ensure that the back skin was fully exposed. On the next day (Day 1), rats in each group were weighed, and the weights were recorded when the electronic scale reading was stable. A progesterone injection was injected intramuscularly at the base of the rat's thigh (alternately between the thighs on both sides), with a drug concentration of 20 mg/mL and an injection dose of 25 mg/kg, once a day. After the intramuscular injection, the rat's back skin was irradiated with ultraviolet light at a wavelength of 280-320 nm. The light source was about 30 cm away from the rat's back skin, and the irradiation time lasted for 60 minutes each time, for a total of 4 weeks.
The injection volume was 0.05 mL/cm^2, 5 days each time, and the administration lasted for 30 days continuously. The animals in the control group (only depilated, without modeling) and the model group were given the solvent.
3.3 Detection of indicators: The first day of modeling was denoted as Day 1, and the experimental period lasted for 58 days. After the end of the experiment (Day 58), 1 hour after the last administration, the skin of the modeling area of the rats in each group was photographed for scoring of apparent indexes (scoring criteria was provided in Table 1). Then the rats in each group were euthanized, their backs were depilated, and 0.5 g of full-thickness skin tissue from the depilated back was taken and placed into an ice bath, and normal saline was added to make a 10% tissue homogenate. The homogenate was centrifuged at 3000 r/min at room temperature for 10 min to obtain a supernatant of skin tissue homogenate. ELISA was carried out to detect the expression of endothelin-1 in the supernatant of skin tissue homogenate. The skin of the modeling area on the back of rats was taken and immersed in 10% neutral formaldehyde for fixation at room temperature for 4 days. Four days later (Day 62), paraffin embedding and sectioning were performed to obtain paraffin sections of skin. The HE staining was performed to observe the pathological changes of the skin tissues of rats in each group. […]

endothelin-1 = test: Rat melasma model: ELISA of ET-1 in supernatant of skin tissue homogenate; conditions: Day 58, vs model group, P<0.01, tranexamic acid 5 mg/mL, compounds under test 5 mg/mL and 1.5 mg/mL
Text: as §1
(§2) The injection volume was 0.05 mL/cm^2, 5 days each time, and the administration lasted for 30 days continuously. […]

rat models of melasma [1] = test: Rat melasma model (UVB irradiation + progesterone): apparent indexes, lesion color and area; conditions: Day 58, vs model group, P<0.05; local injection; tranexamic acid 5 mg/mL; compounds under test 5 mg/mL and 1.5 mg/mL
Text: as §1, §2

rat models of melasma [2] = test: Rat melasma model: HE staining of skin tissues; conditions: vs model group, tranexamic acid 5 mg/mL, compounds under test 5 mg/mL and 1.5 mg/mL
Text: as §1, §2

Compound	distribution of melanin granules (melanin granules)	melanin granules in the skin tissue (melanin granules)	tyrosinase positive rate in the skin tissues (tyrosinase)	ET-1 content in the skin tissue homogenate (endothelin-1)	color of the lesion areas (rat models of melasma [1])	lesion area (rat models of melasma [1])	inflammatory cell infiltration (rat models of melasma [2])	thickness of the basal layer and stratum spinosum of the epidermal tissues (rat models of melasma [2])	tyrosinase expression in the skin tissues (tyrosinase; 1.5 mg/mL group)	tyrosinase expression in the skin tissues (tyrosinase; 5 mg/mL group)
Cl.O=C(O)c1ccc2c(n1)CCNC2 [compound under test 1, 5,6,7,8-tetrahydro-1,6-naphthyridine-2-carboxylic acid hydrochloride]	distributed discontinuously only in the basal layer	significantly reduced	significantly reduced	–	–	–	–	–	–	–
Cl.O=S(=O)(O)c1ccc2c(n1)CC(CCCc1ccccc1)NC2 (centres unmarked) [compound under test 3, 7-(3-phenylpropyl)-5,6,7,8-tetrahydro-1,6-naphthyridine-2-sulfonic acid hydrochloride]	distributed discontinuously only in the basal layer	significantly reduced	significantly reduced	–	–	–	–	–	–	–
NC[C@H]1CC[C@H](C(=O)O)CC1 [tranexamic acid, Tranexamic acid]	–	reduced	–	significantly reduced	significantly lighter	significantly reduced	improved	significantly reduced	–	–
Cl.O=P(O)(O)c1ccc2c(n1)CCNC2 [compound under test 2, (5,6,7,8-tetrahydro-1,6-naphthyridin-2-yl)phosphonic acid hydrochloride]	–	–	–	–	–	–	–	–	significantly different from those in the model group	significantly different from those in the model group
